From ChEMBL document CHEMBL3243940, “Primaquine analogues: derivatives of 4-amino-2-methoxyacridine” (J Med Chem, 1979) come the findings set out here.

Data set [1] deals with Leishmania donovani. Kind of data set: Ratio of glucantime SD50 to compound SD50 for amastigotes of Leishmania donovani Khartoum infected in golden hamster. It is filed as functional.
The test system of data set [2] is Leishmania donovani. The data set can be described thus: Antileishmanial activity against amastigotes of Leishmania donovani Khartoum infected in golden hamster assessed as reduction of parasite level in liver at 52 mg/kg bid for 4 days. More on the design: scale not given: the % may be the effect or the level left. It is filed as functional.
Data set [3] concerns Leishmania donovani. Kind of data set: Antileishmanial activity against amastigotes of Leishmania donovani Khartoum infected in golden hamster assessed as reduction of parasite level in liver at 13 mg/kg bid for 4 days. It is filed as functional. More on the design: scale not given: the % may be the effect or the level left.
Another data set deals with Syrian golden hamster. Kind of data set: Toxicity in amastigotes of Leishmania donovani Khartoum infected golden hamster at 208 mg/kg bid for 4 days. More on the design: dose 208 mg/kg. To be noted: in vivo, 96 h. Type of data set: organism-based, Mesocricetus auratus.

Take `CCN(CC)CCCCCCNc1cc(OC)cc2c(C)c3ccccc3nc12`: the Ratio in the data set with Leishmania donovani [1] was 0.2. Also, the values for the Activity in the data set with Leishmania donovani [2], with Leishmania donovani [3] and in the data set with Syrian golden hamster were 53%, 36% and “Toxic”, respectively.
